From ChEMBL document CHEMBL2086293, “Diaminopyridine-based potent and selective mps1 kinase inhibitors binding to an unusual flipped-Peptide conformation” (ACS Med Chem Lett, 2012)

Experiments:
[1] = target: Mitogen-activated protein kinase 8 (Homo sapiens, UniProt P45983); assay: Inhibition of JNK1-mediated ATF2 phosphorylation after 1 hr by ELISA
A549 [2] = assay: Antiproliferative activity against human A549 cells after 72 hrs by WST8 assay; type: functional, cell-based; conditions: A549, 72 h
[3] = target: Receptor-type tyrosine-protein kinase FLT3 (Homo sapiens) (UniProt P36888); assay: Inhibition of FLT3 at 1 uM
[4] = system: T1, Receptor-type tyrosine-protein kinase FLT3 (Homo sapiens), P36888 [D835Y]; assay: Inhibition of FLT3 D835Y mutant at 1 uM
T1 sequence (whole entry): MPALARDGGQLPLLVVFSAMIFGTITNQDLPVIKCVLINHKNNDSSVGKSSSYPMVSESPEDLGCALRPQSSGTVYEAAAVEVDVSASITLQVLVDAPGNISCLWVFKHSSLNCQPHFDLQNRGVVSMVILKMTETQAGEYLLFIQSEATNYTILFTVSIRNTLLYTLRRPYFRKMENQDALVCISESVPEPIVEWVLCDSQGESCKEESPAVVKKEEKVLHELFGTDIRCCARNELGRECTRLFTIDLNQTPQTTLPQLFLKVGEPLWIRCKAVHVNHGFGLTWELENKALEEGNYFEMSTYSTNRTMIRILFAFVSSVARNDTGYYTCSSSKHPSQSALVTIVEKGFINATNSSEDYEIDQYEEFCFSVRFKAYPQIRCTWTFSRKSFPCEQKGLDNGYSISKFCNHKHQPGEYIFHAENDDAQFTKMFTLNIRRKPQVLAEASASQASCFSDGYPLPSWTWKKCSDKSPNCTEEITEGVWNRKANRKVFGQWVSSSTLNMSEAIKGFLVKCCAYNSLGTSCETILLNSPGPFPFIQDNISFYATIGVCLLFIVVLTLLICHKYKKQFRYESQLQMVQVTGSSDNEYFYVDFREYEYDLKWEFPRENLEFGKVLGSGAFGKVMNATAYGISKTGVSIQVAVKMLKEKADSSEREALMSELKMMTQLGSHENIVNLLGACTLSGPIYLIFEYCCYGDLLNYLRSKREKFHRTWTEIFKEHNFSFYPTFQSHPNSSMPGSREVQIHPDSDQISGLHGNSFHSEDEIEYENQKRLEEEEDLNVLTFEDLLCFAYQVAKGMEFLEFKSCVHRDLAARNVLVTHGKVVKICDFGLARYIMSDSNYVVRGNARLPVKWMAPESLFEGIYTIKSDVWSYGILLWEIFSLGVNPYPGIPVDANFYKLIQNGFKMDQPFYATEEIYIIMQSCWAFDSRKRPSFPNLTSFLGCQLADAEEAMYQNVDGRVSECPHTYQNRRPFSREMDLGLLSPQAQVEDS

[5] = Cmax in mouse at 25 mg/kg, po; type: ADME, organism-based; design: dose 25 mg/kg, route oral; conditions: in vivo
[6] = Tmax in mouse at 25 mg/kg, po; type: ADME, organism-based; design: dose 25 mg/kg, route oral; conditions: in vivo
[7] = AUC in mouse at 25 mg/kg, po; type: ADME, organism-based; design: dose 25 mg/kg, route oral; conditions: plasma
A549 [8] = assay: Antitumor activity against human A549 cells xenografted in po dosed BALB/cA Jcl-nu/nu mouse assessed as tumor growth inhibition administered QD for 19 days; type: functional, organism-based
A549 [9] = assay: Antitumor activity against human A549 cells xenografted in BALB/cA Jcl-nu/nu mouse assessed as tumor growth inhibition at 100 mg/kg, po administered QD for 19 days relative to vehicle-treated control; conditions: 456 h, read-out: TGI
Mus musculus = assay: Toxicity in BALB/cA Jcl-nu/nu mouse xenografted with human A549 cells assessed as body weight loss at 100 mg/kg, po administered QD for 19 days; type: organism-based; design: dose 100 mg/kg, route oral; conditions: in vivo, 456 h

Sequence of Mitogen-activated protein kinase 8 (P45983 whole entry): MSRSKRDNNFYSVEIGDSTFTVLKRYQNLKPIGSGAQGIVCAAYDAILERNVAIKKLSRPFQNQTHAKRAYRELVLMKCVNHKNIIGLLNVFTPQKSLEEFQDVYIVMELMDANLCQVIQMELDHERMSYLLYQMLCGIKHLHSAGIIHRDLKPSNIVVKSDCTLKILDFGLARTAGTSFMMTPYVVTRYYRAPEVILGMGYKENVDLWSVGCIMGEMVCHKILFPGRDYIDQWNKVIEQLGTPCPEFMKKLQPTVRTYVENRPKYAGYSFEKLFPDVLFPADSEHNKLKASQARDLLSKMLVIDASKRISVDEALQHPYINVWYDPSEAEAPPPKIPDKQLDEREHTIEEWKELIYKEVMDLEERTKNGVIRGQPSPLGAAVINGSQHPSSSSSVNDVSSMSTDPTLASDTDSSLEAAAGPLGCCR

Structure (SMILES) | IC50 [1] [nM] | IC50 (A549 [2]) [nM] | also measured
CC(C)(C)Nc1nc(Nc2ccc(C(N)=O)cc2)cc(N)c1C#N | 231 | 840 | inhibition [3]: 50%; inhibition [4]: 86%; Cmax [5]: 3540 ng/mL; Tmax [6]: 15 min; AUC [7]: 6600 ng·h/mL; TGI (A549 [8]): Dose-dependent effect; inhibition in vivo at 100 mg/kg (A549 [9]): 47%; Activity (Mus musculus): Non-toxic
CCOc1nc(NCCc2ccccc2)cc(N)c1C#N | > 100000 |  | 
CCOc1nc(Nc2ccccc2)cc(N)c1C#N | 1040 |  | 
CCOc1nc(Nc2ccc(C(N)=O)cc2)cc(N)c1C#N | 190 | 9500 | 
CCOc1nc(C(=O)NCc2ccccc2)cc(N)c1C#N | 350 |  | 
CCOc1nc(NC(=O)Cc2ccccc2)cc(N)c1C#N | 260 |  | 
